Test results taken from patent publication US12629319B2, “Injection apparatus and method of use” (MOBIUS THERAPEUTICS, INC., priority 2020, dated 2026).

Test system: Glaucoma patients
Assay: Clinical study: subtenon injection of MMC versus MMC-soaked sponges in trabeculectomy
Description: A clinical study was set up to compare the efficacy and safety of subtenon injection of mitomycin C (MMC) using the instant injection system and kits, with that of conventional application of MMC-soaked sponges in trabeculectomy. Glaucoma patients were randomized into two groups; group 1 received a subtenon injection of 0.1 mL of 0.01% MMC by the second sterile syringe, while group 2 received 0.02% MMC-soaked Weck-Cel® sponges to physically disperse the MMC. The injection was placed in the far posterior fornix on a 30-gauge needle prior to the conjunctival peritomy for trabeculectomy. Primary outcome measure is intraocular pressure (IOP), and secondary outcome measures are endothelial cell count (ECC) changes and bleb morphology according to the Indiana Bleb Appearance Grading Scale. Outcome measures were compared at 1, 3 and 6 months postoperatively. Complete and qualified success was defined as IOP within 6-15 mm Hg without and with medications at month 6, respectively.
Data was to be presented in the form of mean, SD, median and range, frequency and percentage values. Normal distribution of data was assessed by Kolmogrov-Smirnov test and Q-Q plot. To evaluate differences between the study groups, χ2, t-test and Mann-Whitney tests. Wilcoxon singed-rank test and the linear mixed model were used to assess changes within the study groups. The Wilcoxon singed-rank test is followed by Bonferroni correction to consider multiple comparisons. To compare the groups adjusted for baseline values, analysis of covariance and Poisson regression (based on the type of response) were used. All statistical analyses were performed using SPSS software (IBM SPSS Statistics for Windows, V. 23.0, Released 2014, IBM, Armonk, New York, USA). All tests were two-sided and p values less than 0.05 were considered statistically significant.

Compound: CO[C@@]12[C@H](COC(N)=O)C3=C(C(=O)C(C)=C(N)C3=O)N1C[C@@H]1N[C@@H]12 [MMC, mitomycin C]
- dependence on glaucoma medications (MMC injection compared to cellulose sponge delivery, trabeculectomy): decreased
- bleb morphology (Indiana Bleb Appearance Grading Scale) (MMC injection compared to trabeculectomies performed with sponges): more favorable
- overall study conclusion for MMC injection versus sponge delivery (MMC injection through the instant apparatus and kits): non-inferiority with improved predictability
- intraocular pressure (IOP) (subtenon injection of 0.1 mL of 0.01% MMC compared to 0.02% MMC-soaked cellulose sponges, trabeculectomy, 1, 3 and 6 months postoperatively): lower
